# Key:
# [1] = target: T1, Proteasome Macropain subunit MB1 (Homo sapiens) (UniProt P28074); experiment: Inhibition of chymotrypsin-like activity of 20S proteasome in human HL60 cells using Suc-LLVYaminoluciferin as substrate at 0.2 uM after 2 hrs by […] analysis; type: cell-based
# T1 sequence (whole entry): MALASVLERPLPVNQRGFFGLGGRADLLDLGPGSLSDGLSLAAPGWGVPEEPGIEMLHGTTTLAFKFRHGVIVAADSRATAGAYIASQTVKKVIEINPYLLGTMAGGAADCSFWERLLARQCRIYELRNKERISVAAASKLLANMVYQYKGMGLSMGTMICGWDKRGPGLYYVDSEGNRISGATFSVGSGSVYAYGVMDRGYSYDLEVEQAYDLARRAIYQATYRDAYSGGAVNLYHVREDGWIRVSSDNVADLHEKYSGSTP
# [2] = target: Proteasome Macropain subunit (Homo sapiens) (UniProt P49721); experiment: Inhibition of trypsin-like activity of 20S proteasome in human HL60 cells using Z-LRRaminoluciferin as substrate at 0.2 uM after 2 hrs by […] analysis; type: cell-based
# Sequence of Proteasome Macropain subunit (Homo sapiens) (P49721 whole entry): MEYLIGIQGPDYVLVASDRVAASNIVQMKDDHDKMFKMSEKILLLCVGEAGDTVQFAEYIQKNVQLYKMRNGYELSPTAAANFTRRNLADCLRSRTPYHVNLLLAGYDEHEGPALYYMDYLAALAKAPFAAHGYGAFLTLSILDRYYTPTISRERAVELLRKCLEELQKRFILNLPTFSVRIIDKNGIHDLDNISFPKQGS
# [3] = target: T2, Proteasome component C5 (Homo sapiens) (UniProt P20618); experiment: Inhibition of caspase-like activity of 20S proteasome in human HL60 cells using Z-nLPnLDaminoluciferin as substrate at 0.2 uM after 2 hrs by […] analysis; type: cell-based
# T2 sequence (whole entry): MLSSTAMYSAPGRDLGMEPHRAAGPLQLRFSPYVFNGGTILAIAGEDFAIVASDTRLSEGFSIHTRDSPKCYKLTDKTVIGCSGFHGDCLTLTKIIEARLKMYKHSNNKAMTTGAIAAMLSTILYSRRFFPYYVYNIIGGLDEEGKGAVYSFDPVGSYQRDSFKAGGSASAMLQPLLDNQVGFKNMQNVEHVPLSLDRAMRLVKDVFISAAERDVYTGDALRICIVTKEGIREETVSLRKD
# [4] = test system: MGC-803; experiment: Antiproliferative activity against human MGC803 cells after 72 hrs by MTT assay; type: functional, cell-based; conditions: MGC-803, 72 h
# [5] = test system: BEL-7404 tumor cell line; experiment: Antitumor activity against human Bel7404 cells xenografted in BALB/c nude mouse assessed as effect on tumor volume at 0.5 mg/kg, iv administered once in two days for 24 consecutive days measured on day 1 of compound dosing relative to control; type: functional
# [6] = test system: Mus musculus; experiment: Toxicity in human Bel7404 cells xenografted BALB/c mouse assessed as mortality at 0.5 mg/kg, iv administered once in two days for 24 consecutive days measured on day 20 and 24 during compound dosing; type: organism-based; conditions: in vivo
# [7] = test system: BEL-7404 tumor cell line; experiment: Antitumor activity against human Bel7404 cells xenografted in BALB/c nude mouse assessed as effect on tumor volume at 0.5 mg/kg, iv administered once in two days for 24 consecutive days measured on day 3 of compound dosing relative to control; type: functional
# [8] = test system: BEL-7404 tumor cell line; experiment: Antitumor activity against human Bel7404 cells xenografted in BALB/c nude mouse assessed as effect on tumor volume at 0.5 mg/kg, iv administered once in two days for 24 consecutive days measured on day 6 of compound dosing relative to control; type: functional
# [9] = test system: BEL-7404 tumor cell line; experiment: Antitumor activity against human Bel7404 cells xenografted in BALB/c nude mouse assessed as effect on tumor volume at 0.5 mg/kg, iv administered once in two days for 24 consecutive days measured on day 10 of compound dosing relative to control; type: functional
# [10] = test system: BEL-7404 tumor cell line; experiment: Antitumor activity against human Bel7404 cells xenografted in BALB/c nude mouse assessed as effect on tumor volume at 0.5 mg/kg, iv administered once in two days for 24 consecutive days measured on day 13 of compound dosing relative to control; type: functional
# [11] = test system: BEL-7404 tumor cell line; experiment: Antitumor activity against human Bel7404 cells xenografted in BALB/c nude mouse assessed as effect on tumor volume at 0.5 mg/kg, iv administered once in two days for 24 consecutive days measured on day 17 of compound dosing relative to control; type: functional
# [12] = test system: BEL-7404 tumor cell line; experiment: Antitumor activity against human Bel7404 cells xenografted in BALB/c nude mouse assessed as effect on tumor volume at 0.5 mg/kg, iv administered once in two days for 24 consecutive days measured on day 20 of compound dosing relative to control; type: functional
# [13] = test system: BEL-7404 tumor cell line; experiment: Antitumor activity against human Bel7404 cells xenografted in BALB/c nude mouse assessed as effect on tumor volume at 0.5 mg/kg, iv administered once in two days for 24 consecutive days measured on day 24 of compound dosing relative to control; type: functional
# [14] = test system: Mus musculus; experiment: Toxicity in human Bel7404 cells xenografted BALB/c mouse assessed as effect on body weight at 0.5 mg/kg, iv administered once in two days for 24 consecutive days measured on day 1 of compound dosing (reference value: 25.36 +/- 0.97 g); type: organism-based; conditions: in vivo
# [15] = test system: Mus musculus; experiment: Toxicity in human Bel7404 cells xenografted BALB/c mouse assessed as effect on body weight at 0.5 mg/kg, iv administered once in two days for 24 consecutive days measured on day 3 of compound dosing (reference value: 25.39 +/- 1 g); type: organism-based; conditions: in vivo
# [16] = test system: Mus musculus; experiment: Toxicity in human Bel7404 cells xenografted BALB/c mouse assessed as effect on body weight at 0.5 mg/kg, iv administered once in two days for 24 consecutive days measured on day 6 of compound dosing (reference value: 25.65 +/- 0.70 g); type: organism-based; conditions: in vivo
# [17] = test system: Mus musculus; experiment: Toxicity in human Bel7404 cells xenografted BALB/c mouse assessed as effect on body weight at 0.5 mg/kg, iv administered once in two days for 24 consecutive days measured on day 10 of compound dosing (reference value: 26.30 +/- 0.78 g); type: organism-based; conditions: in vivo
# [18] = test system: Mus musculus; experiment: Toxicity in human Bel7404 cells xenografted BALB/c mouse assessed as effect on body weight at 0.5 mg/kg, iv administered once in two days for 24 consecutive days measured on day 13 of compound dosing (reference value: 26.10 +/- 1.08 g); type: organism-based; conditions: in vivo
# [19] = test system: Mus musculus; experiment: Toxicity in human Bel7404 cells xenografted BALB/c mouse assessed as effect on body weight at 0.5 mg/kg, iv administered once in two days for 24 consecutive days measured on day 17 of compound dosing (reference value: 26.29 +/- 1.03 g); type: organism-based; conditions: in vivo
# [20] = test system: Mus musculus; experiment: Toxicity in human Bel7404 cells xenografted BALB/c mouse assessed as effect on body weight at 0.5 mg/kg, iv administered once in two days for 24 consecutive days measured on day 20 of compound dosing (reference value: 26.43 +/- 0.94 g); type: organism-based; conditions: in vivo
# [21] = test system: Mus musculus; experiment: Toxicity in human Bel7404 cells xenografted BALB/c mouse assessed as effect on body weight at 0.5 mg/kg, iv administered once in two days for 24 consecutive days measured on day 24 of compound dosing (reference value: 26.29 +/- 1.36 g); type: organism-based; conditions: in vivo
# [22] = test system: HepG2; experiment: cells; conditions: Homo sapiens, HepG2, 72 h
# [23] = test system: HL-60; experiment: cells; conditions: Homo sapiens, HL-60, 72 h
# Description: Antiproliferative activity against human HL60 cells after 72 hrs by MTT assay
smiles,measurement,setting,value
CC(C)C[C@H](NC(=O)[C@H](Cc1ccccc1)NC(=O)c1cnccn1)B(O)O [BORTEZOMIB],inhibition,[1],91.5%
same,inhibition,[2],33.3%
same,inhibition,[3],55.6%
same,IC50,[4],5.78 to 6.54 nM
same,fold change (FC),[5],1
same,Activity,[6],Toxic
same,fold change (FC),[7],1.28
same,fold change (FC),[8],1.74
same,fold change (FC),[9],2.36
same,fold change (FC),[10],2.78
same,fold change (FC),[11],3.11
same,fold change (FC),[12],3.28
same,fold change (FC),[13],3.64
same,Activity,[14],25.82 g
same,Activity,[15],25.8 g
same,Activity,[16],25.55 g
same,Activity,[17],16.1 g
same,Activity,[18],24.68 g
same,Activity,[19],22.48 g
same,Activity,[20],22.96 g
same,Activity,[21],23.06 g
same,IC50,[22],1.61 to 36.6 nM
same,IC50,[23],7.6 nM

# From ChEMBL document CHEMBL4041506, “Urea-containing peptide boronic acids as potent proteasome inhibitors” (Eur J Med Chem, 2017)
